Calls of active or inactive are those of the source. No cut-off for these calls is given here.
Tests used:
[1] = target: T1, DNMT3A2/3L complex (Homo sapiens) (UniProt Q9Y6K1+Q9UJW3); test: (§1) Inhibition of N-terminal His-tagged human DNMT3A (623 to 912 residues)/N-terminal GST-tagged human DNMT3L (160 to 387 residues) co-expressed in baculovirus infected Sf9 cells assessed as DNA methylation using DNA oligonucleotide IDT-01 as substrate at 100 uM preincubated for 15 mins followed by substrate addition in presence of [3H]-SAM and measured after 4 hrs by radioactive methylation assay; conditions: time 255.0 min
[2] = target: T1, DNMT3A2/3L complex (Homo sapiens); test: as §1, with “10” for “100”; conditions: time 255.0 min
[3] = target: DNA (cytosine-5)-methyltransferase 1 (Homo sapiens, UniProt P26358); test: Inhibition of N-terminal GST-tagged full-length recombinant human DNMT1 assessed as DNA methylation using pdI-pdC DNA as substrate preincubated for 15 mins followed by substrate addition in presence of [3H]-SAM and measured after 150 mins by radioactive methylation assay
[4] = target: DNMT3B (Homo sapiens, UniProt Q9UBC3); test: as §1, with “DNMT3B (564” for “DNMT3A (623”, “853” for “912”, “substrate” for “substrate at 100 uM”
[5] = target: T2, Histone-lysine N-methyltransferase EHMT2 (Homo sapiens, UniProt Q96KQ7); test: Inhibition of N-terminal GST-tagged human G9a expressed in baculovirus infected Sf9 cells using biotinylated histone H3 peptide as substrate preincubated for 15 mins followed by substrate addition in presence of SAM and measured after 60 mins by AlphaLISA assay
T2 sequence (Q96KQ7 whole entry): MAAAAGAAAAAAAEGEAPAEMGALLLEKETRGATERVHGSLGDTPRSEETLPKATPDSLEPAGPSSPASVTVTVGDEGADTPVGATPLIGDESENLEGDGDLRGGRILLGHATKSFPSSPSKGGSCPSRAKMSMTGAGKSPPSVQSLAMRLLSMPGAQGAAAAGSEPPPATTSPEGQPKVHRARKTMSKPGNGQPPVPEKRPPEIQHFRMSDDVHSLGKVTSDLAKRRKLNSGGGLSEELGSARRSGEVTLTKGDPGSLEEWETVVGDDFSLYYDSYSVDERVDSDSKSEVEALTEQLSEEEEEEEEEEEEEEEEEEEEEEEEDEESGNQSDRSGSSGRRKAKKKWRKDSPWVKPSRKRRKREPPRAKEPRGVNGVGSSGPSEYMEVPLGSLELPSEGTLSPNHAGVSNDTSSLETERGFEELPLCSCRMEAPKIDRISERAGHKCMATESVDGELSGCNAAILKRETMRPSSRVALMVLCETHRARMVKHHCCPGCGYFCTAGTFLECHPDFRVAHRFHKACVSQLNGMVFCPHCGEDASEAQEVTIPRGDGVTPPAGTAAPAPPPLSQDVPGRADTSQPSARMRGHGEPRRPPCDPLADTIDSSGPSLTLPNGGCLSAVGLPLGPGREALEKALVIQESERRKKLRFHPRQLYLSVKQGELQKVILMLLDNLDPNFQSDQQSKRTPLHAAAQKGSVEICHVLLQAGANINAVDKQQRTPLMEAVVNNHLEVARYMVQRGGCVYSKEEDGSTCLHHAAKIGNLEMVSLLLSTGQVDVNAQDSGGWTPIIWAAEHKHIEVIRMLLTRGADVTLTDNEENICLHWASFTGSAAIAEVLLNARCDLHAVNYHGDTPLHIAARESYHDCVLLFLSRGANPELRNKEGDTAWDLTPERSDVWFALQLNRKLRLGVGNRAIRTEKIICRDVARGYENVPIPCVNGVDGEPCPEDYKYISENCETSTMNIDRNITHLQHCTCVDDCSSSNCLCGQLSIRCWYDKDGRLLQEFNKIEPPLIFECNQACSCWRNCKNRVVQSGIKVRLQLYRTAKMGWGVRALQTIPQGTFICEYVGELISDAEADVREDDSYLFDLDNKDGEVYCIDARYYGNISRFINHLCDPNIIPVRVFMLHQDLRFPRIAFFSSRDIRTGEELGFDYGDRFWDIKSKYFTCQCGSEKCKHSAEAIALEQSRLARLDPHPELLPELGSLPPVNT

[6] = test system: THP-1; test: Antiproliferative activity against human THP-1 cells assessed as inhibition of cell proliferation at 0.1 to 100 uM incubated upto 72 hrs by MTT assay; format: functional, cell-based; conditions: dose 0.1-100 µM
[7] = test system: HCT-116; test: Antiproliferative activity against human HCT-116 cells assessed as inhibition of cell proliferation at 0.1 to 100 uM incubated upto 72 hrs by MTT assay; format: functional, cell-based; conditions: dose 0.1-100 µM
[8] = test system: U-937; test: Antiproliferative activity against human U-937 cells assessed as inhibition of cell proliferation at 0.1 to 100 uM incubated upto 72 hrs by MTT assay; format: functional, cell-based; conditions: dose 0.1-100 µM
[9] = test system: K562; test: Antiproliferative activity against human K562 cells assessed as inhibition of cell proliferation at 0.1 to 100 uM incubated upto 72 hrs by MTT assay; format: functional, cell-based; conditions: dose 0.1-100 µM
[10] = test system: A549; test: Antiproliferative activity against human A549 cells assessed as inhibition of cell proliferation at 0.1 to 100 uM incubated upto 72 hrs by MTT assay; format: functional, cell-based; conditions: dose 0.1-100 µM
[11] = test system: DU-145; test: Antiproliferative activity against human DU-145 cells assessed as inhibition of cell proliferation at 0.1 to 100 uM incubated upto 72 hrs by MTT assay; format: functional, cell-based; conditions: dose 0.1-100 µM
[12] = test system: THP-1; test: Antiproliferative activity against human THP-1 cells assessed as inhibition of cell proliferation incubated for 72 hrs by MTT assay; format: functional, cell-based; conditions: THP-1, 72 h
[13] = test system: K562; test: Antiproliferative activity against human K562 cells assessed as inhibition of cell proliferation incubated for 72 hrs by MTT assay; format: functional, cell-based; conditions: K562, 72 h
[14] = test system: DU-145; test: Antiproliferative activity against human DU-145 cells assessed as inhibition of cell proliferation incubated for 72 hrs by MTT assay; format: functional, cell-based; conditions: DU-145, 72 h
[15] = Cytotoxicity activity against human PBMC cells assessed as inhibition of cell proliferation incubated for 72 hrs by MTT assay; format: toxicity, cell-based
[16] = target: DNA (cytosine-5)-methyltransferase 3A (Homo sapiens) (UniProt Q9Y6K1); test: Inhibition of DNMT3A in human HCT-116 cells assessed as increase in p53 protein level at 1 uM incubated for 72 hrs by Western blot analysis; format: cell-based
[17] = test system: THP-1; test: Antiproliferative activity against human THP-1 cells assessed as inhibition of cell proliferation at 100 uM incubated for 24 to 72 hrs by MTT assay; format: functional, cell-based; conditions: time 24-72 hrs, TDE = time-dependent effect
[18] = test system: HCT-116; test: Antiproliferative activity against human HCT-116 cells assessed as inhibition of cell proliferation at 100 uM incubated for 24 to 72 hrs by MTT assay; format: functional, cell-based; conditions: time 24-72 hrs, TDE = time-dependent effect
[19] = test system: U-937; test: Antiproliferative activity against human U-937 cells assessed as inhibition of cell proliferation at 100 uM incubated for 24 to 72 hrs by MTT assay; format: functional, cell-based; conditions: time 24-72 hrs, TDE = time-dependent effect
[20] = test system: K562; test: Antiproliferative activity against human K562 cells assessed as inhibition of cell proliferation at 100 uM incubated for 24 to 72 hrs by MTT assay; format: functional, cell-based; conditions: time 24-72 hrs, TDE = time-dependent effect
[21] = test system: A549; test: Antiproliferative activity against human A549 cells assessed as inhibition of cell proliferation at 100 uM incubated for 24 to 72 hrs by MTT assay; format: functional, cell-based; conditions: time 24-72 hrs, TDE = time-dependent effect
[22] = test system: DU-145; test: Antiproliferative activity against human DU-145 cells assessed as inhibition of cell proliferation at 100 uM incubated for 24 to 72 hrs by MTT assay; format: functional, cell-based; conditions: time 24-72 hrs, TDE = time-dependent effect
[23] = test system: HCT-116; test: cells; conditions: Homo sapiens, HCT-116, 72 h
Description: Antiproliferative activity against human HCT-116 cells assessed as inhibition of cell proliferation incubated for 72 hrs by MTT assay

[24] = test system: U-937; test: cells; conditions: Homo sapiens, U-937, 72 h
Description: Antiproliferative activity against human U-937 cells assessed as inhibition of cell proliferation incubated for 72 hrs by MTT assay

[25] = test system: A549; test: cells; conditions: Homo sapiens, A549, 72 h
Description: Antiproliferative activity against human A549 cells assessed as inhibition of cell proliferation incubated for 72 hrs by MTT assay

[26] = target: DNA (cytosine-5)-methyltransferase 3A (Homo sapiens) (UniProt Q9Y6K1); test: Inhibition of DNMT3A in human HCT-116 cells assessed as downregulation of DNMT3A protein level at 1 uM incubated for 72 hrs by Western blot analysis; format: cell-based
[27] = target: DNMT3A2/3L complex (Homo sapiens, UniProt Q9Y6K1); test: as §1, with “substrate” for “substrate at 100 uM”
Sequence of DNMT3A2/3L complex (Q9Y6K1 whole entry, looked up, one chain of several): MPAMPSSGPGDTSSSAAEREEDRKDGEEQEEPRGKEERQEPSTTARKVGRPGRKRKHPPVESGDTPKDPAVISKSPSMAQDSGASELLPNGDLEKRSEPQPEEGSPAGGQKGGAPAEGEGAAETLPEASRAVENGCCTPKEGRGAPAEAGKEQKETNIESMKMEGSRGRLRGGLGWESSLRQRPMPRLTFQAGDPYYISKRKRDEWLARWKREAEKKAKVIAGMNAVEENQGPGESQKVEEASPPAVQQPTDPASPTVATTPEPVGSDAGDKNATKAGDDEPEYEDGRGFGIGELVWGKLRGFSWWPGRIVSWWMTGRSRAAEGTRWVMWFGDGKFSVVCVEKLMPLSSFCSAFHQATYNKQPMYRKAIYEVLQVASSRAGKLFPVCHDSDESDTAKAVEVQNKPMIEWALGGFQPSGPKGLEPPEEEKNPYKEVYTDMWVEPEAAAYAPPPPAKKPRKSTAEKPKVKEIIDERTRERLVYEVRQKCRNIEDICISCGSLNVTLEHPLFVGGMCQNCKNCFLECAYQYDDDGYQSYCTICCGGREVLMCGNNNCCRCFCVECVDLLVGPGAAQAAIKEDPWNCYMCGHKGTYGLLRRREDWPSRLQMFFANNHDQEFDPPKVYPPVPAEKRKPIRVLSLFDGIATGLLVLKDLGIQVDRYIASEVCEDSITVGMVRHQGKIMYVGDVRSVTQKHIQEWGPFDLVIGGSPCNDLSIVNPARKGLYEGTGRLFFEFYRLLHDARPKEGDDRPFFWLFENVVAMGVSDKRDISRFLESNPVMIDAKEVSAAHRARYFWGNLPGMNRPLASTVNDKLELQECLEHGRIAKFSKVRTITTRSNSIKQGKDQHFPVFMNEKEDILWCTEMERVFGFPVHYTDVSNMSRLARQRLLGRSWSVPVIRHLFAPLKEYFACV

T1 sequence (Q9UJW3 whole entry, looked up, the tested form may be a part): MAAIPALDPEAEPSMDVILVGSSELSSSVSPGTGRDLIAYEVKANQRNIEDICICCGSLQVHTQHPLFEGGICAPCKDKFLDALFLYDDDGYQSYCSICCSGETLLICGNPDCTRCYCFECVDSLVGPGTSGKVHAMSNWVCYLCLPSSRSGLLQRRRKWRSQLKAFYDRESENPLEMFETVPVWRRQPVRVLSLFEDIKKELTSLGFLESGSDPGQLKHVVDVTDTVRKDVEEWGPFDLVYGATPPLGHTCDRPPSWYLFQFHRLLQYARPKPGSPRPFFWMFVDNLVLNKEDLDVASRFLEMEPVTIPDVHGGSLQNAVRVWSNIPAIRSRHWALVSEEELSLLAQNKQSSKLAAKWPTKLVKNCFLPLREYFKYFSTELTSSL
T1 sequence (Q9Y6K1 whole entry, looked up, the tested form may be a part): as the sequence (Q9Y6K1 whole entry, looked up, one chain of several) above
Sequence of DNA (cytosine-5)-methyltransferase 3A (Homo sapiens) (Q9Y6K1 whole entry, looked up): as the sequence (Q9Y6K1 whole entry, looked up, one chain of several) above
Sequence of DNA (cytosine-5)-methyltransferase 1 (P26358 whole entry): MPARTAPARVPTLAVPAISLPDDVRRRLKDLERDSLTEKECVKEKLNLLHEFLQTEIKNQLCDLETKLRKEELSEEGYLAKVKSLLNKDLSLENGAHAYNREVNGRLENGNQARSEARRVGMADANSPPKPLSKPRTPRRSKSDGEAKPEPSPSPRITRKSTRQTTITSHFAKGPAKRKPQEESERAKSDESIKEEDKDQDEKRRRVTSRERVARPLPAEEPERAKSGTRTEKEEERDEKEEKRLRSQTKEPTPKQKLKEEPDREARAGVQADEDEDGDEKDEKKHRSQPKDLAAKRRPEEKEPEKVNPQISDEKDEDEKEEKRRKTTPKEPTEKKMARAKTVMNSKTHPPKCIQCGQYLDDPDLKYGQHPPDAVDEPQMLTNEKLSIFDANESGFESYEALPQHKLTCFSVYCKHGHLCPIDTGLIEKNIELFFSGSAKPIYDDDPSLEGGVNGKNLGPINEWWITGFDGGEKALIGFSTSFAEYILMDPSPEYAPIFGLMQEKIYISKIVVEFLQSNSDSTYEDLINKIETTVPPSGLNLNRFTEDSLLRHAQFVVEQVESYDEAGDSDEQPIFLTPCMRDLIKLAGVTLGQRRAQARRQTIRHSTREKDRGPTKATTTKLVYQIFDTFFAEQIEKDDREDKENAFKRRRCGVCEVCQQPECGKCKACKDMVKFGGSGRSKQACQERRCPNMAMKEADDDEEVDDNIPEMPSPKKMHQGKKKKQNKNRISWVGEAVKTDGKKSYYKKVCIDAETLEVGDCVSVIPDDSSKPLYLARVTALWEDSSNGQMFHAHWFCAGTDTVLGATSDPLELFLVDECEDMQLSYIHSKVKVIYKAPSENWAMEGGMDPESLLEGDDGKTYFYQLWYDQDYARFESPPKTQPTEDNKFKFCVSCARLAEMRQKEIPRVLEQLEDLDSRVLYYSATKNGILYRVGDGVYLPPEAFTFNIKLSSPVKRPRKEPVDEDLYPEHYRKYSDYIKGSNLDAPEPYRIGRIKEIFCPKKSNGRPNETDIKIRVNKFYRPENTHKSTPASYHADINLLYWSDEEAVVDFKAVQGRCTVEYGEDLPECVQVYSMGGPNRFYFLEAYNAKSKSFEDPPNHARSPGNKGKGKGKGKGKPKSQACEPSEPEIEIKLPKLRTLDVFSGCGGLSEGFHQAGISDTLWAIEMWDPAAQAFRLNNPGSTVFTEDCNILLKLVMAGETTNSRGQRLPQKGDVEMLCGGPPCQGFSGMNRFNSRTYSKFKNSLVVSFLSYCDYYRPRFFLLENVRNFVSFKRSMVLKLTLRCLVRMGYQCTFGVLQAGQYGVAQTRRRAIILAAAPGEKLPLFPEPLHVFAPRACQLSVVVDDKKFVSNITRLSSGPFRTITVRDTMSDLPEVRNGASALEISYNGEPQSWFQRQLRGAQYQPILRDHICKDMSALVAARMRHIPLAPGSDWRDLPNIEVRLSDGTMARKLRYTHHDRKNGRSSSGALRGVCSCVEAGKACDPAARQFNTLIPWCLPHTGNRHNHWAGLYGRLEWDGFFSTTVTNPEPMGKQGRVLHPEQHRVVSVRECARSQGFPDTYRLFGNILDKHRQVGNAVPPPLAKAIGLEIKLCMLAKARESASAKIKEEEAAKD

Cc1oc2ncn(CCCN3CCOCC3)c(=O)c2c1C(=O)Nc1ccc(C#N)cc1
inhibition [1]: 28.4%
inhibition [2]: 22.7%

Cc1sc2ncn(CCCN(C)C)c(=O)c2c1C(=O)Nc1ccc(S(N)(=O)=O)nc1
inhibition [1]: 57.5%
inhibition [2]: 51.3%

Cc1oc2ncn(CCCN(C)C)c(=O)c2c1C(=O)Nc1ccc(C#N)cc1
inhibition [1]: 36%
inhibition [2]: 36.4%

Cc1oc2ncn(CCN3CCCCC3)c(=O)c2c1C(=O)Nc1ccc(S(N)(=O)=O)nc1
inhibition [1]: 77.7%
inhibition [2]: 70.5%
IC50 [3]: 51.2 µM
IC50 [4]: > 100 µM
IC50 [5]: > 500 µM
Activity [6]: Dose-Dependent Effect
Activity [7]: Dose-Dependent Effect
Activity [8]: Dose-Dependent Effect
Activity [9]: Dose-Dependent Effect
Activity [10]: Dose-Dependent Effect
Activity [11]: Dose-Dependent Effect
IC50 [12]: 2.2 µM
IC50 [13]: 6.1 µM
IC50 [14]: 5.3 µM
IC50 at 72 h [15]: 137 µM
p53 protein level increase (active/not active) [16]: Active
Activity [17]: Tde
Activity [18]: Tde
Activity [19]: Tde
Activity [20]: Tde
Activity [21]: Tde
Activity [22]: Tde
IC50 [23]: 0.5 µM
IC50 [24]: 1.8 µM
IC50 [25]: 11.1 µM

Cc1oc2ncn(CCCN3CCOCC3)c(=O)c2c1C(=O)Nc1ccc(S(N)(=O)=O)nc1
inhibition [1]: 54.2%
inhibition [2]: 36%

Cc1sc2ncn(CCCN(C)C)c(=O)c2c1C(=O)Nc1ccc(C#N)nc1
inhibition [1]: 37.8%
inhibition [2]: 28.9%

Cc1oc2ncn(C(C)c3ccccc3)c(=O)c2c1C(=O)Nc1ccc(S(N)(=O)=O)nc1 (stereo not given)
inhibition [1]: 28.6%

Cc1oc2ncn(Cc3ccncc3)c(=O)c2c1C(=O)Nc1ccc(S(N)(=O)=O)nc1
inhibition [1]: 18.1%

Cc1oc2ncn(CC3CCCO3)c(=O)c2c1C(=O)Nc1ccc(S(N)(=O)=O)nc1 (stereo not given)
inhibition [1]: 29.5%

Cc1cc(Nc2ccc(NC(=O)c3ccc(Nc4ccnc5ccccc45)cc3)cc2)nc(N)n1
IC50 [12]: 0.7 µM
IC50 [13]: 0.6 µM
IC50 [14]: 3.4 µM
IC50 at 72 h [15]: 2 µM
inhibition [26]: inactive
p53 protein level increase (active/not active) [16]: inactive
IC50 [23]: 0.9 µM
IC50 [24]: 0.7 µM
IC50 [25]: 8.9 µM

Cc1sc2ncn(CCN3CCOCC3)c(=O)c2c1C(=O)Nc1ccc(S(N)(=O)=O)nc1
inhibition [1]: 40.4%
IC50 [27]: > 100 µM
inhibition [2]: 8.3%

From ChEMBL document CHEMBL5352402, “Discovery of novel non-nucleoside inhibitors with high potency and selectivity for DNA methyltransferase 3A” (Eur J Med Chem, 2022)
